Results from patent US5594030A, “Controlled release pharmaceutical compositions based on one or more pharmaceutically acceptable salts of gamma hydroxy-butyric acid” (Laboratorio Farmaceutico C.T. S.r.l., priority 1993, dated 1997).
Structures can show the parent of a compound that is named as a salt. Where two headings read alike, the source gives them in different places.

Legend:
[1] = cited from earlier work
[2] = system: enzymes having the --SH group; details: result in words; cited from earlier work
[3] = GHB average pharmacokinetic parameters after oral administration of different doses (immediate release) to 8 healthy volunteers; type: in vivo, human (healthy volunteers); details: for Tmax / CL/F / MRT / half-life: human, plasma; for CL/F: read-out: CLo (oral clearance); for MRT: read-out: MRT (average residence time) (converted); for AUC: average (SD); for absorption: result in words, immediate release / aqueous liquid solutions
Description: GHB Average pharmacokinetic parameters after
administration of different doses to 8 healthy volunteers

[4] = fraction of unbound drug (dialysis); type: in vitro ADME; details: predialysis concentration of 25 μg/ml; read-out: fu (fraction of unbound drug)
Procedure: ^c determined at a predialysis concentration of 25 μg/ml
peak, tmax absorption time to the peak, fu fraction of unbound

[5] = In vitro dissolution test (paddle test); type: physicochemical; details: aqueous liquid solutions / formulations on the market; instantaneous
Procedure: The evaluation test in vitro is carried out with a dissolution test consistent with the apparatus described in the European Pharmacopoeia 2° ed. or UPS XXII ed. ("paddle test"). The dosage, evaluated in the time after 1, 2, 3, 4, 6 and 8 hours, is carried out with 1N hydrochloric acid, taking a known amount from the dissolution medium.
medium: distilled H20 900 ml.
Data obtained are the following (expressed as GHBNa percentage with respect to the total tablet content): […]

[6] = oral 25 mg/kg, normalized at 12.5 mg/kg
[7] = oral 50 mg/kg, normalized at 12.5 mg/kg

Question: For `CCN(CC)C(=S)SSC(=S)N(CC)CC` [Disulfiram], which toxicity ([1]; Disulfiram by itself, therapeutical doses) is on record?
Answer: The toxicity was “scarcely toxic”.

Question: And the “blood acetaldehyde concentration vs alcohol dose alone” value ([1]; alcohol administered after Disulfiram pretreatment)?
Answer: Its value is “five to ten times higher”.

Question: And the severe events occurred ([1]; as a consequence of Disulfiram treatment)?
Answer: Its severe events occurred is “depression, myocardial infarction, sudden and unexplained fatalities”.

Question: What about the “side effects (may cause)” value ([1]; in vivo) of the same molecule?
Answer: Its value is “acneiform eruptions, allergic dermatitis, urticaria, lassitude, fatigue, tremor, restlessnes, reduced sexual potency, gastric or digestive disturbances”.

Question: What about the enzyme inhibition [2] of the same molecule?
Answer: The enzyme inhibition was “alters the activity of all enzymes having the --SH group”.

Question: Which Tmax ([3]; oral 12.5 mg/kg, average value (range), read-out: tmax (absorption time to the peak) (converted)) does the source give for `O=C(O)CCCO` [GHB, gamma hydroxy butyric acid] here?
Answer: The Tmax was 25 min.

Question: What about the CL/F ([3]; oral 12.5 mg/kg) of the same molecule?
Answer: The CL/F was 14 mL/min/kg.

Question: And the MRT ([3]; oral 12.5 mg/kg)?
Answer: The MRT was 45 min.

Question: What about the half-life ([3]; oral 12.5 mg/kg, read-out: t^1/2 z (final halflife time)) of the same molecule?
Answer: Its half-life is 20 min.

Question: What about the Tmax ([3]; oral 25 mg/kg, average value (range), read-out: tmax (absorption time to the peak) (converted)) of the same molecule?
Answer: Its Tmax is 30 min.

Question: What about the CL/F ([3]; oral 25 mg/kg) of the same molecule?
Answer: The CL/F was 9 mL/min/kg.

Question: What about the MRT ([3]; oral 25 mg/kg) of the same molecule?
Answer: Its MRT is 53 min.

Question: And the half-life ([3]; oral 25 mg/kg, read-out: t^1/2 z (final halflife time))?
Answer: Its half-life is 22 min.

Question: And the Tmax ([3]; oral 50 mg/kg, average value (range), read-out: tmax (absorption time to the peak) (converted))?
Answer: The Tmax was 45 min.

Question: And the CL/F ([3]; oral 50 mg/kg)?
Answer: Its CL/F is 7 mL/min/kg.

Question: And the MRT ([3]; oral 50 mg/kg)?
Answer: The MRT was 70 min.

Question: And the half-life ([3]; oral 50 mg/kg, read-out: t^1/2 z (final halflife time))?
Answer: Its half-life is 23 min.

Question: And the Cmax ([3]; oral 12.5 mg/kg)?
Answer: The Cmax was 23 (9) μg/ml.

Question: What about the AUC ([3]; oral 12.5 mg/kg, 8 healthy volunteers) of the same molecule?
Answer: The AUC was 905 (443) μg/ml min.

Question: What about the Cmax [3, 6] of the same molecule?
Answer: Its Cmax is 23 (11) μg/ml.

Question: And the AUC [3, 6]?
Answer: The AUC was 1271 (560) μg/ml min.

Question: What about the Cmax [3, 7] of the same molecule?
Answer: The Cmax was 20 (7) μg/ml.

Question: And the AUC [3, 7]?
Answer: The AUC was 1565 (548) μg/ml min.

Question: And the fraction unbound [4]?
Answer: Its fraction unbound is 0.99.

Question: With `O=C(O)CCCO` [GHBNa, sodium salt of gamma hydroxy butyric acid] as the molecule, how does the Tmax ([3]; po, about, summary of table 1 and FIG. 1, read-out: maximum peak after the administration) read?
Answer: The Tmax was 30 to 45 min.

Question: And the half-life ([3]; po, summary of table 1 and FIG. 1, read-out: half life)?
Answer: The half-life was 20 to 25 min.

Question: What about the absorption [3] of the same molecule?
Answer: Its absorption is “rapidly absorbed”.

Question: What about the absorption ([3]; listed as sodium gamma hydroxy butyrate) of the same molecule?
Answer: Its absorption is “absorbed quickly”.

Question: And the elimination time ([3]; summary of table 1 and FIG. 1)?
Answer: Its elimination time is 4 to 5 h.

Question: What about the “release of the active substance” value [5] of the same molecule?
Answer: Its value is 100%.
